Test results: patent US20230212549A1, “COMPOUNDS COMPRISING A […] LIGAND AND USE THEREOF” (priority 2021, published 2023)
Numbered stars: 1 amine (or outer) side, 2 acyl side, 3 side chain; on linkers, the order of the positions; unused ones are H or OH. Bridge positions count the residues as written; N and C are the ends. Square brackets hold non-standard residues; d marks the D form. Peptide text beside a SMILES is read from it. * marks the point of attachment. X35 = CC1(C)C(=CC=CC=CC2=[N+](CCCCS(=O)(=O)[O-])c3ccccc3C2(C)C)N(CCCCCC(=O)N2CCN(Cc3cc(C[*:1])cc(C[*:2])c3)CC2)c2ccccc21; Pro(trans-4-F) = O=C(O)[C@@H]1C[C@@H](F)CN1; Phe(4-Cl) = N[C@@H](Cc1ccc(Cl)cc1)C(=O)O; mXylylene = c1cc(C[*:1])cc(C[*:2])c1; PEG6 = NCCOCCOCCOCCOCCOCCOCCC(=O)O; Nle = CCCC[C@H](N)C(=O)O; X2 = NCCNCC(CNCCN)C(=O)*; Hexanoyl = CCCCCC(=O)*; βAla = NCCC(=O)O

Legend:
[1] = biological target: Human recombinant FAP (Homo sapiens, UniProt Q12884); test: FRET-based FAP protease activity assay; format: biochemical; parameters: purchased R&D systems 3715-SE
[2] = biological target: T1, FAP-expressing human WI-38 fibroblasts (Homo sapiens, UniProt Q12884); test: Competitive FACS binding assay
T1 construct: FAP-expressing human WI-38 fibroblasts (ECACC) were cultured in EMEM; host or cells: WI-38 human fibroblasts
Procedure: Cells were analyzed in an Attune NxT flow cytometer. […] […].
Cells were analyzed in an Attune NxT flow cytometer. […]

[3] = pIC50 Category (Activity), FRET-based FAP protease activity assay, recombinant human FAP, 37° C.
[4] = pIC50 Category (activity), Recombinant human FAP
[5] = pIC50 Category (Activity), FRET-peptide substrate, 37° C.

Chain of Human recombinant FAP (Q12884 whole entry): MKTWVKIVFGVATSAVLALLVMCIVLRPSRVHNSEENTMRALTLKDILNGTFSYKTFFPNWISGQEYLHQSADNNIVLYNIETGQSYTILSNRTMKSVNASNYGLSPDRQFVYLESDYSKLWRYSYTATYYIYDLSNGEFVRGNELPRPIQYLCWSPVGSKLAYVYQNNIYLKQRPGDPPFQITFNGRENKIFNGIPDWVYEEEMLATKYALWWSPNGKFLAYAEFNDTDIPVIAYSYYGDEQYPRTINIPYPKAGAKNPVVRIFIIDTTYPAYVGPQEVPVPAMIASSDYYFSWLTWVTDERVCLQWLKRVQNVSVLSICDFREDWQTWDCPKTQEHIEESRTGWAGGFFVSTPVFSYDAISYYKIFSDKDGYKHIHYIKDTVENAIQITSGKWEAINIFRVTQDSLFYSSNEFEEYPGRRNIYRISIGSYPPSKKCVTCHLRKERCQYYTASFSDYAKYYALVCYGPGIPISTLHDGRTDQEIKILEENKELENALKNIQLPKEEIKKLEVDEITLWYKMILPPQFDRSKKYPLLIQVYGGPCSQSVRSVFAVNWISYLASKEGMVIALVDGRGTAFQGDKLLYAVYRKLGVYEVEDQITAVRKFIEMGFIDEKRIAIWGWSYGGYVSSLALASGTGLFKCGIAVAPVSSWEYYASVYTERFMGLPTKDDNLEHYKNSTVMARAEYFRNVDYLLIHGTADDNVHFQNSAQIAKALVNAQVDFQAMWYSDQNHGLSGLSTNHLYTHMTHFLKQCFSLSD
T1 sequence (Q12884 whole entry): as above

SMILES	IC50 [1, 3]	IC50 [2]	IC50 [1, 5]	also measured
CCCCCC(=O)N[C@H]1CSCc2cc(CSCCNC(=O)CCCCCN3C(=CC=CC=CC4=[N+](CCCCS(=O)(=O)[O-])c5ccccc5C4(C)C)C(C)(C)c4ccccc43)cc(c2)CSC[C@@H](C(=O)O)NC(=O)[C@H](Cc2ccccc2)NC(=O)[C@H](CCC(N)=O)NC(=O)[C@H]([C@@H](C)O)NC(=O)[C@@H]2CCCN2C(=O)[C@@H]2CCCN2C1=O [3BP-3694, Hex-[Cys(tMeBn(Cy5SO3-AET))-Pro-Pro-Thr-Gln-Phe-Cys]-OH]	100 to 794 nM			
CCCC[C@H](NC(=O)CCNC(=O)CCOCCOCCOCCOCCOCCOCCNC(=O)C(CNCCN)CNCCN)C(=O)N[C@H]1CSCc2cccc(c2)CSC[C@@H](C(=O)O)NC(=O)[C@H](Cc2ccccc2)NC(=O)[C@H](CCC(=O)O)NC(=O)[C@H]([C@@H](C)O)NC(=O)[C@@H]2CCCN2C(=O)[C@@H]2CCCN2C1=O [3BP-4779, N4Ac-PEG6-Bal-Nle-[C(3MeBn)-PPTEFC]-OH] ({X2-PEG6-βAla}-[Nle]CPPTEFC-OH; linker 2-8 via mXylylene)		100 to 794 nM		IC50 [1, 4]: > 1000 nM
C[C@@H](O)[C@@H]1NC(=O)[C@@H]2CCCN2C(=O)[C@@H]2CCCN2C(=O)[C@@H](NC(=O)[C@@H]2CCCO2)CSCc2cc(CSCCNC(=O)CN3CCN(CC(=O)O)CCN(CC(=O)O)CCN(CC(=O)O)CC3)cc(c2)CSC[C@@H](C(=O)O)NC(=O)[C@H](Cc2ccccc2)NC(=O)[C@H](CCC(N)=O)NC1=O [3BP-3936, Sth-[Cys(tMeBn(DOTA-AET))-Pro-Pro-Thr-Gln-Phe-Cys]-OH]		10 to 79.4 nM	10 to 79.4 nM	
CCCCCC(=O)N[C@H]1CSCc2cccc(c2)CSC[C@@H](C(N)=O)NC(=O)[C@H](Cc2ccc(Cl)cc2)NC(=O)[C@H](CCC(=O)O)NC(=O)[C@H]([C@@H](C)O)NC(=O)[C@@H]2CCCN2C(=O)[C@@H]2CCCN2C1=O [3BP-3369, Hex-[Cys(3MeBn)-Pro-Pro-Thr-Glu-Pcf-Cys]-NH2] (Hexanoyl-CPPTE[Phe(4-Cl)]C-NH2; linker 1-7 via mXylylene)	100 to 794 nM	100 to 794 nM		
CCCCCC(=O)N[C@H]1CSCc2cccc(c2)CSC[C@@H](C(N)=O)NC(=O)[C@H](Cc2ccccc2)NC(=O)[C@H](CCC(=O)O)NC(=O)[C@H]([C@@H](C)O)NC(=O)[C@@H]2C[C@@H](F)CN2C(=O)[C@@H]2CCCN2C1=O [3BP-3352, Hex-[Cys(3MeBn)-Pro-4Tfp-Thr-Glu-Phe-Cys]-NH2] (Hexanoyl-CP[Pro(trans-4-F)]TEFC-NH2; linker 1-7 via mXylylene)	10 to 79.4 nM	100 to 794 nM		
CCCC[C@H](NC(=O)CCC(=O)NCCCOCCOCCOCCCNC(=O)CN1CCN(CC(=O)O)CCN(CC(=O)O)CCN(CC(=O)O)CC1)C(=O)N[C@H]1CSCc2cc(CSCCNC(=O)CN3CCN(CC(=O)O)CCN(CC(=O)O)CCN(CC(=O)O)CC3)cc(c2)CSC[C@@H](C(=O)N[C@@H](CC(=O)O)C(=O)NCCCOCCOCCOCCCNC(=O)CCC(=O)N[C@@H](CCCCNC(=O)CN2CCN(CC(=O)O)CCN(CC(=O)O)CCN(CC(=O)O)CC2)C(N)=O)NC(=O)[C@H](Cc2ccccc2)NC(=O)[C@H](CCC(N)=O)NC(=O)[C@H]([C@@H](C)O)NC(=O)[C@@H]2CCCN2C(=O)[C@@H]2CCCN2C1=O [3BP-4392, DOTA-Ttds-Nle-[Cys(tMeBn(DOTA-AET))-Pro-Pro-Thr-Gln-Phe-Cys]-Asp-Ttds-Lys(DOTA)-NH2]		10 to 79.4 nM	10 to 79.4 nM	
CCCC[C@H](NC(=O)CCC(=O)NCCCOCCOCCOCCCNC(=O)CN1CCN(CC(=O)O)CCN(CC(=O)O)CCN(CC(=O)O)CC1)C(=O)N[C@H]1CSCc2cccc(c2)CSC[C@@H](C(=O)N[C@@H](CC(=O)O)C(=O)NCCCOCCOCCOCCCNC(=O)CCC(=O)N[C@@H](CCCCNC(=O)CN2CCN(CC(=O)O)CCN(CC(=O)O)CCN(CC(=O)O)CC2)C(N)=O)NC(=O)[C@H](Cc2ccccc2)NC(=O)[C@H](CCC(N)=O)NC(=O)[C@H]([C@@H](C)O)NC(=O)[C@@H]2CCCN2C(=O)[C@@H]2CCCN2C1=O [3BP-4393, DOTA-Ttds-Nle-[Cys(3MeBn)-Pro-Pro-Thr-Gln-Phe-Cys]-Asp-Ttds-Lys(DOTA)-NH2]		< 10 nM	< 10 nM	
CCCCCC(=O)N[C@H]1CSCc2cc(cc(CN3CCN(C(=O)CCCCCN4C(=CC=CC=CC5=[N+](CCCCS(=O)(=O)[O-])c6ccccc6C5(C)C)C(C)(C)c5ccccc54)CC3)c2)CSC[C@@H](C(=O)N[C@@H](CC(=O)O)C(N)=O)NC(=O)[C@H](Cc2ccccc2)NC(=O)[C@H](CCC(N)=O)NC(=O)[C@H]([C@@H](C)O)NC(=O)[C@@H]2CCCN2C(=O)[C@@H]2CCCN2C1=O [3BP-3693, Hex-[Cys(tMeBn(Cy5SO3-PP))-Pro-Pro-Thr-Gln-Phe-Cys]-Asp-NH2] (Hexanoyl-CPPTQFCD-NH2; linker 1-7 via X35)	10 to 79.4 nM			
CCCCCC(=O)N[C@H]1CSCc2cc(CSCCNC(=O)COc3ccc4nc3CN(CC(=O)O)CCN(CC(=O)O)CCN(CC(=O)O)C4)cc(c2)CSC[C@@H](C(=O)O)NC(=O)[C@H](Cc2ccccc2)NC(=O)[C@H](CCC(N)=O)NC(=O)[C@H]([C@@H](C)O)NC(=O)[C@@H]2CCCN2C(=O)[C@@H]2CCCN2C1=O [3BP-5363, Hex-[C(tMeBn(LaAcPCTA-AET))-PPTQFC]-OH]				pIC50 Category (activity) ([1]; Recombinant human FAP): B (category B for pIC50 values between 7.1 and 8.0)
CCCCCC(=O)N[C@H]1CSCc2cc(CSCCNC(=O)CN3CCN(CC(N)=O)CCN(CC(N)=O)CCN(CC(N)=O)CC3)cc(c2)CSCC(C(=O)O)NC(=O)[C@H](Cc2ccccc2)NC(=O)[C@H](CCC(N)=O)NC(=O)[C@H]([C@@H](C)O)NC(=O)[C@@H]2CCCN2C(=O)[C@@H]2CCCN2C1=O (stereo partly drawn) [3BP-5323, Hex-[Cys(tMeBn(DOTAM-AET))-Pro-Pro-Thr-Gln-Phe-Cys]-OH]				IC50 [1, 4]: < 10 nM
